# Test results from patent publication US20240316144A1, “PHARMACEUTICAL COMPOSITION AND METHOD FOR INHIBITING ANGIOGENESIS” (ZIH YUAN TANG Biotechnology Co, Ltd., priority 2023, published 2024).
# Columns and labels:
# [1] = tested on: laser-induced angiogenesis; assay: Fundus fluorescein angiography (FFA) of laser-induced choroidal neovascularization in mice, vitreous injection; format: in vivo, C57BL/6 mice; conditions: for angiogenesis index (relative average fluorescence leakage ratio vs Day 0): vitreous injection, mean±S.E.M.; for FFA quantified values, difference to other groups: Eylea 40 μg/eye/μL, p<0.01 (FIG. 2D)
# Method: (§1) Beauvericin (BEA), named GYT088 in this trail, was supplied by Shiyuantang Biotechnology Co. 5 mg of BEA (molecular weight 783.96) was dissolved in DMSO at a stock concentration of 50 mM, and then diluted to 100 μM with saline. Before injection, the sample was diluted to 1.6, 3.2, and 6.4 μM in saline, and then administered to the low, medium, and high-dose groups, which were equivalent to 1.28, 2.56, and 5.12 ng/eye, respectively, based on a vitreous volume of 4 μl in mice (wherein the injection volume is 1 μl); converted to the human doses of 1.28, 2.56, 5.12 μg/eye as the low, medium and high dose levels, respectively, based on a vitreous volume of 4-4.5 ml in human.
# (§2) Male C57BL/6 mice from BioLASCO Taiwan CO., Ltd. at 7-8 weeks of age, with an average body weight of 17-20 g, were used in this study. The mice were housed in the Animal Room of the National Taipei Medical University for more than 5 days before the start of the experiment. The incubation temperature was set at 23±1° C., the humidity was set at 39˜43%, and the automated light control system maintained 12 hours of light and 12 hours of darkness. The feed was Rodent diet 5001 (Purina, MO, USA) and drinking water was supplied indefinitely.
# (§3) After the adaptation period, the retina was cauterized with laser light (day 0), and the degree of retinal damage was confirmed by fundus photography (FP), fluorescein fundus angiography (FFA), and frequency-domain optical […] (SD-OCT) on the same day (FIG. 1). The mice were randomly divided into five groups and given vitreous injections of the corresponding drugs, including (1) control group, (2) positive control group: Eylea (40 μg/eye/μL), (3-5) GYT088 treatment groups at low-dose (1.28 ng/eye), medium-dose (2.56 ng/eye), and high-dose ([…]). Five mice in each group were clinically observed daily, and retinal injury repair was examined at Day 7 and Day 14.
# Mice were deeply anesthetized and pupils were dilated. A Micron III retinal imaging microscope (Phoenix, San Ramon, CA, USA) was used to adjust the focal length, and the central socket of the mice was placed in the center of the fundus lens to capture fundus photography (FP), and then 10% sodium fluorescein solution was injected intraperitoneally, and retinal angiography was performed with a 520 nm filter to capture continuous images for analysis. After the administration of drugs, the FP, FFA, and SD-OCT results were observed once a week at Day 0 and recorded until Day 14. Sharp images were selected for analysis and imported into […] using ImageJ, and the software automatically quantified the pixel value and area of the fundus region by removing the background values. Due to differences in individual retinal structures, post-laser wound healing varies and overexposure of signals in the area may occur. If fluorescence leakage occurs outside of the location of direct laser damage, it is considered to be a phenomenon of fundus neovascularization. Therefore, the quantification was performed by randomly selecting three fixed areas of the fluorescence leakage area that were not laser-damaged areas.
# [2] = tested on: retinal sublayer structure; assay: SD-OCT damage score of the retinal sublayer structure after laser injury in mice, vitreous injection; format: in vivo, C57BL/6 mice; conditions: for SD-OCT quantified values, difference to other groups: p<0.01 (FIG. 3D)
# Method: as §1, §2, §3
# The OCT (Phoenix Research Laboratories, San Ramon, CA) imaging system used in this experiment is based on the principle of frequency-domain optical homodyne tomography. The computerized tomography (CT) scan was divided into three layers: the first layer was from the nerve fiber layer (NFL) to the inner nuclear layer (INL), the second layer was from the INL to the inner segment/outer segment (IS/OS), and the third layer was from the IS/OS to the retinal pigment epithelium (RPE). The damage was scored according to the retinal sublayer structure in a double-blind trail, and the mean value of the scores was taken as the index value of the damage after each score was made by 3 persons.
Molecule,"angiogenesis index (relative average fluorescence leakage ratio vs Day 0) ([1]; Day 7, high-dose 5.12 ng/eye, p<0.05) [times]","angiogenesis index (relative average fluorescence leakage ratio vs Day 0) ([1]; Day 7, low-dose 1.28 ng/eye) [times]","angiogenesis index (relative average fluorescence leakage ratio vs Day 0) ([1]; Day 7, medium-dose 2.56 ng/eye) [times]","angiogenesis index (relative average fluorescence leakage ratio vs Day 0) ([1]; Day 14, high-dose 5.12 ng/eye, p<0.01) [times]","angiogenesis index (relative average fluorescence leakage ratio vs Day 0) ([1]; Day 14, low-dose 1.28 ng/eye) [times]","angiogenesis index (relative average fluorescence leakage ratio vs Day 0) ([1]; Day 14, medium-dose 2.56 ng/eye, p<0.01) [times]","damage score compared with control group ([2]; Day 14, high-dose 5.12 ng/eye, vitreous injection)","SD-OCT quantified values, difference to other groups ([2]; Day 14, low-dose 1.28 ng/eye)","SD-OCT quantified values, difference to other groups ([2]; Day 14, mid-dose 2.56 ng/eye)","FFA quantified values, difference to other groups ([1]; Day 7)","FFA quantified values, difference to other groups ([1]; Day 14)","damage score (scale 0-4) ([2]; Day 7, Eylea 40 μg/eye/μL, vitreous injection, control 1.38±0.17)","SD-OCT quantified values, difference to other groups ([2]; Day 14, Eylea 40 μg/eye/μL)"
"CC(C)[C@H]1OC(=O)[C@H](Cc2ccccc2)N(C)C(=O)[C@@H](C(C)C)OC(=O)[C@H](Cc2ccccc2)N(C)C(=O)[C@@H](C(C)C)OC(=O)[C@H](Cc2ccccc2)N(C)C1=O [GYT088, beauvericin]",1.53±0.17,1.92±0.21,1.59±0.22,1.63±0.16,2.46±0.18,1.79±0.17,significantly lower than control group,significant difference,significant difference,–,–,–,–
"Eylea: positive control group: Eylea (40 μg/eye/μL), vitreous injection [reference compound]",–,–,–,–,–,–,–,–,–,significant difference,significant difference,0.80±0.13,significant difference
